From patent US9272047B2, “Use of biological surfactant as anti-inflammatory agent and tissue preservative solution” (Shaperon Inc., priority 2007, dated 2016)
“Also recorded” adds a separate entry of the source.

Columns and labels:
macrophages = test: In vitro proinflammatory cytokine generation by E. coli LPS, macrophages (ELISA); format: cell-based, C57BL/6 mouse; conditions: LPS stimulation
Procedure: (§1) In order to assay the effect of sodium glycocholate on the generation of proinflammatory cytokines induced by E. coli LPS, dendritic cells were prepared in the same way as Example 3, and macrophages were separated from the abdomen of C57BL/6 mouse. Thereafter, sodium glycocholate and LPS were reacted in vitro for 1 hour at 37° C., and then mixed with the cells. Each cell was stimulated for 14 hours at 37° C., and then supernatant fluid was separated.
(§2) The concentrations of TNF-α and interleukin-12p40 in the separated supernatant fluid was measured by an enzyme-linked immunoabsorbent assay (ELISA).
(§3) Each group was treated and assayed at least twice, and the results were statistically analyzed through t-test. The results were p<0.05 compared with the experimental groups treated by only LPS.

dendritic cells = test: In vitro proinflammatory cytokine generation by E. coli LPS, dendritic cells (ELISA); format: cell-based, mouse; conditions: LPS stimulation
Procedure: as §1, §2, §3

[1] = test system: dendritic cell-mediated T cell; test: Inhibition of the activation of dendritic cell-mediated T cell by E. coli LPS ([3H]-methylthymidine); format: cell-based, mouse
Procedure: Antigen presenting cells activated by LPS activates T cells. It was tested whether dendritic cells blocked by sodium glycocholate can activate T cells when LPS activates dendritic cells. Cells were harvested from the bone marrow of Rag2 deficient male mouse. The harvested cells were plated at 4×10^3 cells/well in a 96-well plate and treated with 1.5 ng/ml of […] and 0.75 ng/ml of interleukin-4, and then incubated for 6 days to differentiate into dendritic cells. Sodium glycocholate was reacted with LPS for 1 hour at 37° C., and then mixed with the dendritic cells. The dendritic cells were stimulated for 14 hours at 37° C., and CD3+ and CD4+ T cells separated from female Marilyn mouse having H-Y antigen-specific T cell receptor (TCR), were incubated with the dendritic cells for 72 hours. [3H]-methylthymidine was added, at 1 μCi/well, to the 96-well plate and then incubated for 18 hours. Cells were harvested from the 96-well plated and then CPM (count per minute) was measured through a beta counter.

[2] = test system: ischemia-reperfusion renal injury; test: Ischemia-reperfusion renal injury model, organ preservative solution additive; format: in vivo, Sprague-Dawley rat; conditions: 0.5 mg/ml in HTK solution
Procedure: The effect of sodium glycocholate to inflammatory response and renal function in an ischemia-reperfusion renal injury model, was evaluated. Five Sprague-Dawley (SD) male rats of 6 weeks age were used per each group, and foods and waters were not supplied to all the rats from 1 day before the experiment. The rats were anesthetized by the administration of 1 mg avertin (tribromoethanol/amyl hydrate)/100 g rat to the abdomen of the rats, and then laparotomized. All the blood flow to a left kidney was blocked by clamping the aorta and vena cava using vascular clamps. Before injecting the organ preservative solution, a vein of the left kidney was penetrated to minimize physical damage of the kidney due to the preservative solution pressure. Then, after histidine-tyroptophan-ketoglutarate (HTK) or a mixture solution of HTK and 0.5 mg/ml of sodium glycocholate was injected, at 4 ml/rat, into the vein, the damaged part of the vein was sutured by using 10-0 suture. After 30 min maintenance of the above state, the vascular clamps were removed and the laparotomized part was sutured. […] The concentration of IL-6 in the serum was measured by a enzyme-linked immunosorbent assay, and the concentrations of blood urea nitrogen (BUN), creatinine (Cre) and aspartate aminotransferase (AST) in the plasma were measured by an automated analyzer.

CHO cells = test: Cytotoxicity to CHO cells (7AAD, FACS); format: cell-based, Chinese hamster
Procedure: (§4) The cytotoxicity of sodium glycocholate to the CHO cells, dendritic cells, T cells which were used in the above Examples was assayed. FACS analysis was performed after staining with 7AAD. First, sodium glycocholate was kept in vitro for 1 hour at 37° C., and then mixed with cells. CHO cells or dendritic cells were incubated for 14 hours at 37° C., and T cells which were mixed with 14 hour-incubated dendritic cells, were incubated for 4 days. Then, each cell was stained with 7AAD and cell analysis were carried out by using a flow cytometer.
The same procedures as for FIG. 25A were carried out in FIGS. 26A-26C-Figs. 31A-31B and cytotoxicity experiments were performed on three groups of bile acid derivatives which were classified based on their solubility in different solvents.

[3] = test system: dendritic cell-mediated T cells; test: Cytotoxicity to dendritic cell-mediated T cells (7AAD, FACS); format: cell-based, mouse
Procedure: as §4

abdominal cells = test: Toxicity to abdominal cells separated from mice after abdominal administration (7AAD); format: in vivo, C57BL/6 mouse; conditions: 5 mg (250 mg/kg) into abdomen, cells separated after 1 hour
Procedure: In order to assay the toxicity of sodium glycocholate to a mouse, experiments were performed to five C57BL/6 male mice of 7-9 weeks age per each group. Sodium glycocholate dissolved in PBS was kept in vitro for 1 hour at 37° C., and then the sodium glycocholate solution was administered into the abdomen of the mice followed by the cell analysis. After 1 hour from the administration, the abdominal cells were separated and stained with 7AAD, and then the abdominal cells were analyzed. Cells which were freezed and thawed at least five times were used for a positive control group in 7ADD staining. Experimental results were statistically analyzed by t-test, and p<0.05 compared with the experimental group which was not treated with sodium glycocholate.

Balb/c mice = test: Acute toxicity in mice, single administration into abdomen or tail vein; format: in vivo
Procedure: Acute toxicity was measured by using five Balb/c mice of 6 weeks age per group, which were once administered with sodium glycocholate, at different sodium glycocholate concentrations, into the abdomen and tail vein. […] However, 250 mg/kg of sodium glycocholate at which the above-mentioned effects of sodium glycocholate, and the sodium glycocholate concentration of below 250 mg/kg, 100 % of the mice survived (FIGS. 32A-32B). Also, 100 % of the mice survived at the sodium glycocholate concentration of not exceeding 150 mg/kg in the experiment where sodium glycocholate of different concentrations was adiministered into tail vein of mice (FIG. 33).

SMILES: C[C@H](CCC(=O)NCC(=O)[O-])[C@H]1CC[C@H]2[C@@H]3[C@H](O)C[C@@H]4C[C@H](O)CC[C@]4(C)[C@H]3C[C@H](O)[C@]12C.[Na+] [sodium glycocholate]
- inhibition of generation of TNF-α (macrophages; 0.5 mg/ml): 42.2±0.9%
- inhibition of generation of interleukine-12p40 (macrophages; 0.5 mg/ml): 9.8±11.0%
- inhibition of generation of TNF-α (macrophages; 1 mg/ml): 87.8±0.2%
- inhibition of generation of interleukine-12p40 (macrophages; 1 mg/ml): 54.3±4.1%
- inhibition of generation of TNF-α (dendritic cells; 0.5 mg/ml): 70.2±2.3%
- inhibition of generation of interleukine-12p40 (dendritic cells; 0.5 mg/ml): 4.7±3.1%
- inhibition of generation of TNF-α (dendritic cells; 1 mg/ml): 101.0±0.2%
- inhibition of generation of interleukine-12p40 (dendritic cells; 1 mg/ml): 106.6±1.3%
- inhibition of proliferation of dendritic cell-mediated T cell ([1]; 0.5 mg/ml): 104.9±3.2%
- inhibition of proliferation of dendritic cell-mediated T cell ([1]; 1 mg/ml): 105.1±3.2%
- ischemia-reperfusion renal injury [2]: inhibited
- cytotoxicity (CHO cells; 1 mg/ml): no significant cytotoxicity; also recorded: dose not have cytotoxicity
- 7AAD(+) increase compared with the negative control group (CHO cells; 14 hours): 2-4%
- cytotoxicity ([3]; 1 mg/ml): no significant cytotoxicity; also recorded: dose not have cytotoxicity
- 7AAD(+) increase compared with the negative control group ([3]; 4 days): 2-4%
- cytotoxicity for abdominal cells (survival rate of the abdominal cells versus PBS control) (abdominal cells): no significant difference; also recorded: dose not have cytotoxicity
- mice survived (Balb/c mice; abdominal administration, 250 mg/kg and below): 100%
- concentration (dose) at which toxicity was shown (Balb/c mice; abdominal administration, single dose): > 500 mg/kg
- adverse effect (Balb/c mice; mouse test, dose of 250 mg/kg mouse): no adverse effect
- mice survived (Balb/c mice; tail vein administration, not exceeding 150 mg/kg): 100%
